The NIST ThermoML archive (doi:10.1016/j.jct.2006.05.003)

Experiments:
[1] = 101 kPa, Liquid
[2] = refractive index (Na D-line) (dimensionless); details: 101.33 kPa, Liquid, Standard Abbe refractometry
[3] = xn = mol fraction of the nth substance listed; details: 101 kPa, Liquid
[4] = refractive index (Na D-line) (dimensionless); xn = mol fraction of the nth substance listed; details: 101 kPa, Liquid, Standard Abbe refractometry

CC(C)(C)Cl [2-chloro-2-methylpropane]
Details	mass density, [1] [kg/m3]	refractive index, [2]
298.15 K	836.45	1.38224
313.15 K	818.31	1.37314

C1COCCO1 [1,4-dioxane]
Details	mass density, [1] [kg/m3]	refractive index, [2]
298.15 K	1027.87	1.41995
313.15 K	1010.69	1.41264

CCCCl [1-chloropropane] + C1COCCO1
Details	mass density, [3] [kg/m3]	refractive index, [4]
298.15 K, x2 = 0	884.26	1.3856
298.15 K, x2 = 0.1027	898.64	1.38919
298.15 K, x2 = 0.2077	913.41	1.39281
298.15 K, x2 = 0.3029	926.89	1.39609
298.15 K, x2 = 0.4034	941.19	1.39957
298.15 K, x2 = 0.506	955.87	1.40308
298.15 K, x2 = 0.6062	970.28	1.40651
298.15 K, x2 = 0.706	984.73	1.4099
298.15 K, x2 = 0.8081	999.6	1.41336
298.15 K, x2 = 0.9059	1013.96	1.41673
298.15 K, x2 = 0.9486	1020.26	1.41818
313.15 K, x2 = 0	865.14	1.37673
313.15 K, x2 = 0.1009	879.74	1.38047
313.15 K, x2 = 0.2026	894.27	1.38432
313.15 K, x2 = 0.3067	909.2	1.38812
313.15 K, x2 = 0.4061	923.53	1.39169
313.15 K, x2 = 0.5056	937.97	1.39523
313.15 K, x2 = 0.6044	952.38	1.39872
313.15 K, x2 = 0.7114	968.04	1.40252
313.15 K, x2 = 0.8026	981.42	1.40576
313.15 K, x2 = 0.9011	995.98	1.40922
313.15 K, x2 = 0.951	1003.38	1.41097

CCCCCl [1-chlorobutane]
Details	mass density, [1] [kg/m3]	refractive index, [2]
298.15 K	880.69	1.3995
313.15 K	863.82	1.39133

C1COCCO1 [1,4-dioxane] + CCCCCl
x1 = 1
Details	mass density, [3] [kg/m3]	refractive index, [4]
298.15 K	1027.87	1.41995
313.15 K	1010.69	1.41264

CCCCCl [1-chlorobutane] + C1COCCO1
Details	mass density, [3] [kg/m3]	refractive index, [4]
298.15 K, x2 = 0	880.69	1.3995
298.15 K, x2 = 0.0418	885.54	1.40011
298.15 K, x2 = 0.1141	894.14	1.40119
298.15 K, x2 = 0.2426	910.06	1.40328
298.15 K, x2 = 0.3358	922.21	1.40491
298.15 K, x2 = 0.4518	938.11	1.40709
298.15 K, x2 = 0.5509	952.44	1.40908
298.15 K, x2 = 0.5914	958.52	1.40994
298.15 K, x2 = 0.738	981.64	1.41323
298.15 K, x2 = 0.8235	995.99	1.41529
298.15 K, x2 = 0.9104	1011.29	1.41752
298.15 K, x2 = 0.987	1025.41	1.4196
313.15 K, x2 = 0	863.82	1.39133
313.15 K, x2 = 0.0344	867.83	1.39188
313.15 K, x2 = 0.117	877.61	1.39321
313.15 K, x2 = 0.2279	891.26	1.39506
313.15 K, x2 = 0.3499	907.15	1.39732
313.15 K, x2 = 0.4442	920.15	1.39917
313.15 K, x2 = 0.55	935.51	1.40138
313.15 K, x2 = 0.645	950.02	1.40351
313.15 K, x2 = 0.7456	966.15	1.40591
313.15 K, x2 = 0.8238	979.22	1.40786
313.15 K, x2 = 0.9143	995.01	1.41024
313.15 K, x2 = 0.9636	1003.94	1.41159

CC(C)CCl [1-chloro-2-methylpropane]
Details	mass density, [1] [kg/m3]	refractive index, [2]
298.15 K	871.13	1.39528
313.15 K	853.51	1.38686

C1COCCO1 [1,4-dioxane] + CC(C)CCl
x1 = 1
Details	mass density, [3] [kg/m3]	refractive index, [4]
298.15 K	1027.87	1.41995
313.15 K	1010.69	1.41264

C1COCCO1 [1,4-dioxane] + CCC(C)Cl
x1 = 1
Details	mass density, [3] [kg/m3]	refractive index, [4]
298.15 K	1027.87	1.41995
313.15 K	1010.69	1.41264

C1COCCO1 [1,4-dioxane] + CCCCl
x1 = 1
Details	mass density, [3] [kg/m3]	refractive index, [4]
298.15 K	1027.87	1.41995
313.15 K	1010.69	1.41264

CCC(C)Cl (stereo not given) [2-chlorobutane] + C1COCCO1
Details	mass density, [3] [kg/m3]	refractive index, [4]
298.15 K, x2 = 0	867.4	1.39404
298.15 K, x2 = 0.0417	872.75	1.3949
298.15 K, x2 = 0.1061	881.2	1.3963
298.15 K, x2 = 0.2514	901.2	1.3996
298.15 K, x2 = 0.3493	915.42	1.40193
298.15 K, x2 = 0.4771	934.94	1.40512
298.15 K, x2 = 0.5563	947.61	1.40721
298.15 K, x2 = 0.6462	962.58	1.40961
298.15 K, x2 = 0.7343	977.89	1.41208
298.15 K, x2 = 0.8244	994.21	1.41466
298.15 K, x2 = 0.9112	1010.56	1.41725
298.15 K, x2 = 0.9891	1025.72	1.41962
313.15 K, x2 = 0	850.13	1.38573
313.15 K, x2 = 0.0475	856.2	1.38674
313.15 K, x2 = 0.1318	867.4	1.38865
313.15 K, x2 = 0.239	882.36	1.3912
313.15 K, x2 = 0.3413	897.3	1.39378
313.15 K, x2 = 0.4574	915.03	1.39683
313.15 K, x2 = 0.5546	930.53	1.39949
313.15 K, x2 = 0.6429	945.17	1.40195
313.15 K, x2 = 0.7326	960.65	1.40449
313.15 K, x2 = 0.8209	976.52	1.40709
313.15 K, x2 = 0.9121	993.58	1.40985
313.15 K, x2 = 0.9525	1001.37	1.41113

CC(C)(C)Cl [2-chloro-2-methylpropane] + C1COCCO1
Details	mass density, [3] [kg/m3]	refractive index, [4]
298.15 K, x2 = 0	836.45	1.38224
298.15 K, x2 = 0.0458	844.01	1.38393
298.15 K, x2 = 0.1594	862.91	1.38814
298.15 K, x2 = 0.2576	879.78	1.39182
298.15 K, x2 = 0.3925	904.15	1.39689
298.15 K, x2 = 0.4632	917.47	1.39956
298.15 K, x2 = 0.5569	935.61	1.40312
298.15 K, x2 = 0.6611	956.29	1.40709
298.15 K, x2 = 0.7458	973.39	1.41033
298.15 K, x2 = 0.8395	992.69	1.4139
298.15 K, x2 = 0.9222	1010.32	1.41703
298.15 K, x2 = 0.9639	1019.57	1.41861
313.15 K, x2 = 0	818.31	1.37314
313.15 K, x2 = 0.0485	826.29	1.37502
313.15 K, x2 = 0.0903	833.3	1.37667
313.15 K, x2 = 0.2192	855.58	1.38175
313.15 K, x2 = 0.2827	866.86	1.38423
313.15 K, x2 = 0.3966	887.59	1.3888
313.15 K, x2 = 0.5029	907.54	1.39301
313.15 K, x2 = 0.6039	927.14	1.39702
313.15 K, x2 = 0.7025	946.96	1.40092
313.15 K, x2 = 0.8138	970.21	1.40529
313.15 K, x2 = 0.8959	987.89	1.4085
313.15 K, x2 = 0.9612	1002.17	1.41105

C1COCCO1 [1,4-dioxane] + CC(C)(C)Cl
x1 = 1
Details	mass density, [3] [kg/m3]	refractive index, [4]
298.15 K	1027.87	1.41995
313.15 K	1010.69	1.41264

CC(C)CCl [1-chloro-2-methylpropane] + C1COCCO1
Details	mass density, [3] [kg/m3]	refractive index, [4]
298.15 K, x2 = 0	871.13	1.39528
298.15 K, x2 = 0.045	876.79	1.39616
298.15 K, x2 = 0.1196	886.36	1.39763
298.15 K, x2 = 0.2433	902.87	1.40025
298.15 K, x2 = 0.3412	916.58	1.40243
298.15 K, x2 = 0.4407	931.19	1.40471
298.15 K, x2 = 0.5447	947.22	1.40725
298.15 K, x2 = 0.6463	963.67	1.40983
298.15 K, x2 = 0.737	979.04	1.4123
298.15 K, x2 = 0.8305	995.63	1.41492
298.15 K, x2 = 0.9157	1011.45	1.41742
298.15 K, x2 = 0.9515	1018.31	1.41849
313.15 K, x2 = 0	853.51	1.38686
313.15 K, x2 = 0.0474	859.42	1.38783
313.15 K, x2 = 0.1492	872.58	1.39001
313.15 K, x2 = 0.2654	888.36	1.39259
313.15 K, x2 = 0.3687	903.12	1.39504
313.15 K, x2 = 0.4565	916.21	1.39721
313.15 K, x2 = 0.5541	931.39	1.39973
313.15 K, x2 = 0.6426	945.76	1.40211
313.15 K, x2 = 0.7423	962.69	1.40489
313.15 K, x2 = 0.8326	978.76	1.40752
313.15 K, x2 = 0.9112	993.38	1.40987
313.15 K, x2 = 0.9606	1002.9	1.41139

CCC(C)Cl (stereo not given) [2-chlorobutane]
Details	mass density, [1] [kg/m3]	refractive index, [2]
298.15 K	867.4	1.39404
313.15 K	850.13	1.38573

CCCCl [1-chloropropane]
Details	mass density, [1] [kg/m3]	refractive index, [2]
298.15 K	884.26	1.3856
313.15 K	865.14	1.37673
